Source: PubChem BioAssay (NCI)
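Growth conditions: 96-well plates. Treatment: test compound, 48 hours, 5 concentrations. Analysis: linear interpolation between bracketing concentrations; unreached endpoints set to highest concentration. TGI: total growth inhibition.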

Tests used:
Test in all cases: inhibition of tumour cell growth, NCI panel, 48 h
786-0 renal = system: 786-0 renal
A498 renal = system: A498 renal
A549 NSCLC = system: A549 NSCLC
ACHN renal = system: ACHN renal
BT-549 breast = system: BT-549 breast
CAKI-1 renal = system: CAKI-1 renal
CCRF-CEM leukemia = system: CCRF-CEM leukemia
COLO 205 colon = system: COLO 205 colon
DU-145 prostate = system: DU-145 prostate
EKVX NSCLC = system: EKVX NSCLC
HCT-116 colon = system: HCT-116 colon
HCT-15 colon = system: HCT-15 colon
HL-60(TB) leukemia = system: HL-60(TB) leukemia
HOP-62 NSCLC = system: HOP-62 NSCLC
HOP-92 NSCLC = system: HOP-92 NSCLC
HS 578T breast = system: HS 578T breast
HT29 colon = system: HT29 colon
IGROV1 ovarian = system: IGROV1 ovarian
K-562 leukemia = system: K-562 leukemia
KM12 colon = system: KM12 colon
LOX IMVI melanoma = system: LOX IMVI melanoma
M14 melanoma = system: M14 melanoma
MALME-3M melanoma = system: MALME-3M melanoma
MCF7 breast = system: MCF7 breast
MDA-MB-231 breast = system: MDA-MB-231 breast
MDA-MB-435 = system: MDA-MB-435
MDA-N = system: MDA-N
MOLT-4 leukemia = system: MOLT-4 leukemia
NCI-H226 lung = system: NCI-H226 lung
NCI-H23 lung = system: NCI-H23 lung
NCI-H460 lung = system: NCI-H460 lung
NCI-H522 lung = system: NCI-H522 lung
NCI/ADR-RES ovarian = system: NCI/ADR-RES ovarian
OVCAR-3 ovarian = system: OVCAR-3 ovarian
OVCAR-4 ovarian = system: OVCAR-4 ovarian
OVCAR-5 ovarian = system: OVCAR-5 ovarian
OVCAR-8 ovarian = system: OVCAR-8 ovarian
PC-3 prostate = system: PC-3 prostate
RPMI-8226 leukemia = system: RPMI-8226 leukemia
RXF 393 renal = system: RXF 393 renal
SF-268 CNS = system: SF-268 CNS
SF-295 CNS = system: SF-295 CNS
SF-539 CNS = system: SF-539 CNS
SK-MEL-2 melanoma = system: SK-MEL-2 melanoma
SK-MEL-28 melanoma = system: SK-MEL-28 melanoma
SK-MEL-5 melanoma = system: SK-MEL-5 melanoma
SK-OV-3 ovarian = system: SK-OV-3 ovarian
SN12C renal = system: SN12C renal
SNB-19 CNS = system: SNB-19 CNS
SNB-75 CNS = system: SNB-75 CNS
SR leukemia = system: SR leukemia
SW-620 colon = system: SW-620 colon
T-47D breast = system: T-47D breast
TK-10 renal = system: TK-10 renal
U251 CNS = system: U251 CNS
UACC-257 melanoma = system: UACC-257 melanoma
UACC-62 melanoma = system: UACC-62 melanoma
UO-31 renal = system: UO-31 renal

C[N+](C)([O-])CCC=C1c2ccccc2CCc2ccccc21
TGI (786-0 renal): 19.2 µM
TGI (A498 renal): 48.1 µM
TGI (A549 NSCLC): > 100 µM
TGI (ACHN renal): > 100 µM
TGI (BT-549 breast): > 100 µM
TGI (CAKI-1 renal): 79.4 µM
TGI (CCRF-CEM leukemia): 40.7 µM
TGI (COLO 205 colon): 43.6 µM
TGI (DU-145 prostate): 70.9 µM
TGI (EKVX NSCLC): 59 µM
TGI (HCT-116 colon): > 100 µM
TGI (HCT-15 colon): 95 µM
TGI (HL-60(TB) leukemia): 30.6 µM
TGI (HOP-62 NSCLC): 34.9 µM
TGI (HOP-92 NSCLC): 94.4 µM
TGI (HS 578T breast): 64.9 µM
TGI (HT29 colon): 67.9 µM
TGI (IGROV1 ovarian): 33.1 µM
TGI (K-562 leukemia): 52 µM
TGI (KM12 colon): 36.3 µM
TGI (LOX IMVI melanoma): 2.7 µM
TGI (M14 melanoma): > 100 µM
TGI (MALME-3M melanoma): 45.4 µM
TGI (MCF7 breast): 48.2 µM
TGI (MDA-MB-231 breast): 68 µM
TGI (MDA-MB-435): 38.1 µM
TGI (MDA-N): 65.3 µM
TGI (MOLT-4 leukemia): 40.7 µM
TGI (NCI-H226 lung): 67.5 µM
TGI (NCI-H23 lung): > 100 µM
TGI (NCI-H460 lung): > 100 µM
TGI (NCI-H522 lung): 34.4 µM
TGI (NCI/ADR-RES ovarian): 69.3 µM
TGI (OVCAR-3 ovarian): 58.8 µM
TGI (OVCAR-4 ovarian): 97 µM
TGI (OVCAR-5 ovarian): > 100 µM
TGI (OVCAR-8 ovarian): 52.6 µM
TGI (PC-3 prostate): 86.3 µM
TGI (RPMI-8226 leukemia): 34.5 µM
TGI (RXF 393 renal): 39.8 µM
TGI (SF-268 CNS): 54.6 µM
TGI (SF-295 CNS): 70 µM
TGI (SF-539 CNS): > 100 µM
TGI (SK-MEL-2 melanoma): 36.8 µM
TGI (SK-MEL-28 melanoma): 98.7 µM
TGI (SK-MEL-5 melanoma): 34.3 µM
TGI (SK-OV-3 ovarian): > 100 µM
TGI (SN12C renal): 62.9 µM
TGI (SNB-19 CNS): > 100 µM
TGI (SNB-75 CNS): 75.4 µM
TGI (SR leukemia): 39.3 µM
TGI (SW-620 colon): 62.3 µM
TGI (T-47D breast): 77.7 µM
TGI (TK-10 renal): > 100 µM
TGI (U251 CNS): 33.8 µM
TGI (UACC-257 melanoma): > 100 µM
TGI (UACC-62 melanoma): 41.2 µM

CC(=O)OCc1cc(CCC(=O)NCCNc2c3ccccc3nc3ccccc23)cc(COC(C)=O)c1O[Si](C)(C)C(C)(C)C
TGI (786-0 renal): 31.3 µM
TGI (A498 renal): 6.1 µM
TGI (A549 NSCLC): 24.4 µM
TGI (ACHN renal): 30.6 µM
TGI (BT-549 breast): 34.2 µM
TGI (CCRF-CEM leukemia): 20.5 µM
TGI (COLO 205 colon): 15.9 µM
TGI (DU-145 prostate): 28.1 µM
TGI (EKVX NSCLC): 36.1 µM
TGI (HCT-116 colon): 31.1 µM
TGI (HCT-15 colon): 33.3 µM
TGI (HL-60(TB) leukemia): 6.2 µM
TGI (HOP-62 NSCLC): 32.5 µM
TGI (HOP-92 NSCLC): 22.7 µM
TGI (HS 578T breast): 13.9 µM
TGI (HT29 colon): 7.38 µM
TGI (IGROV1 ovarian): 27.6 µM
TGI (K-562 leukemia): 6.49 µM
TGI (KM12 colon): 15.4 µM
TGI (LOX IMVI melanoma): 3.58 µM
TGI (M14 melanoma): 23.2 µM
TGI (MALME-3M melanoma): 25.6 µM
TGI (MCF7 breast): 4.57 µM
TGI (MDA-MB-231 breast): 11.6 µM
TGI (MDA-MB-435): 8.06 µM
TGI (MDA-N): 21.9 µM
TGI (MOLT-4 leukemia): 5.25 µM
TGI (NCI-H226 lung): 4.72 µM
TGI (NCI-H23 lung): 34.7 µM
TGI (NCI-H460 lung): 21.6 µM
TGI (NCI-H522 lung): 21.8 µM
TGI (NCI/ADR-RES ovarian): 45.9 µM
TGI (OVCAR-3 ovarian): 5.68 µM
TGI (OVCAR-4 ovarian): 21.1 µM
TGI (OVCAR-5 ovarian): 29.1 µM
TGI (OVCAR-8 ovarian): 39.9 µM
TGI (PC-3 prostate): 29.3 µM
TGI (RPMI-8226 leukemia): 5.77 µM
TGI (RXF 393 renal): 9.37 µM
TGI (SF-295 CNS): 11.7 µM
TGI (SF-539 CNS): 4.99 µM
TGI (SK-MEL-2 melanoma): 23.8 µM
TGI (SK-MEL-28 melanoma): 18.2 µM
TGI (SK-OV-3 ovarian): 27.7 µM
TGI (SN12C renal): 3.38 µM
TGI (SNB-19 CNS): 31.2 µM
TGI (SR leukemia): 4.91 µM
TGI (SW-620 colon): 30.1 µM
TGI (T-47D breast): 5.73 µM
TGI (TK-10 renal): 23.2 µM
TGI (U251 CNS): 19.7 µM
TGI (UACC-257 melanoma): 14.6 µM
TGI (UACC-62 melanoma): 19.5 µM
TGI (UO-31 renal): 31.1 µM
